Reference: US20110033387A1, “METHOD OF DETERMINATION OF PDH ACTIVITY AND IMAGING MEDIA FOR USE IN SAID METHOD” (GE HEALTHCARE LIMITED, priority 2007, published 2011)

Key:
PDH [1] = assay: PDH flux by cardiac 13C-MR with imaging medium with or without malate, fed and fasted rats; type: in vivo, male Wistar rats; details: 40 μmol hyperpolarised 13C-pyruvate alone, fasted vs fed rats
Procedure: (§1) All rats were anaesthetised using isofluorane (2% in oxygen) and kept on a heated mat. Care was taken to maintain body temperature at 37° C. A catheter was introduced into the tail vein, and rats were then placed in a home-built animal handling system. ECG, respiration rate, and body temperature were monitored, and air heating was provided. Anaesthesia was continued by means of isofluorane (1.7%) delivered to a nose cone.
A home-built ^1H/^13C butterfly coil was fit over the rat chest, localising signal from the heart. Rats were positioned in a 7 T horizontal bore MR scanner interfaced to a Varian Inova console. Correct positioning was confirmed by the acquisition of an axial proton FLASH image (TE/TR=1.17/2.33 ms, Matrix size=64×64, FOV=60×60 mm, Slice thickness=2.5 mm, Excitation flip angle=15°). […]
(§2) The series of cardiac ^13C MR spectra were analysed using the AMARES algorithm as implemented in the jMRUI software package (Naressi et al., Computers in Biology and Medicine, 31(4), 2001, 269-286 and Naressi et al., Magnetic Resonance Materials in Physics, Biology and Medicine, 12(2-3), 2001, 141-152). […]
Maximum pyruvate peak area was calculated for each series of spectra, and was used to calculate maximum bicarbonate/pyruvate ratio. […] Parameters describing the kinetic progression of bicarbonate, namely time to appearance, time to maximum, and decay time to half maximum were also calculated. […]

[2] = T1 relaxation of 13C1-pyruvate in human full blood; type: physicochemical; details: human full blood at 37° C.
PDH [3] = assay: PDH activity by 13C-MR detection (13C-bicarbonate to 13C-pyruvate ratio) in STZ Type 1 diabetes model; type: in vivo, male Wistar rats; details: single i.p. injection 50 mg/kg, five days after induction, rat heart, each rat its own control
Procedure: Initial PDH activity (baseline) was determined in a first group of 6 rats according to Example 3. […] Five days after STZ-diabetes induction, PDH activity was determined again, each rat served as its own experimental control.
as §1
1 cm^3 of the imaging medium as prepared in Example 1 was injected over 10 s via the tail vein catheter in the anaesthetised rat. […]
as §2
Maximum pyruvate peak area was calculated for each series of spectra, and was used to calculate maximum bicarbonate/pyruvate ratio. […] Parameters describing the kinetic progression of bicarbonate, namely time to appearance, time to maximum, and decay time to half maximum were also calculated.

T1 relaxation [2]	Compound	PDH flux lower in fasted rats compared with fed rats (PDH [1]) [%]	ratio of the 13C-bicarbonate to 13C-pyruvate peak amplitude / PDH activity, before vs after STZ injection (PDH [3])
about 42 s	CC(=O)C(=O)O [^13C1-pyruvate, sodium ^13C1-pyruvate]	55	
	CN(N=O)C(=O)N[C@H]1C(O)O[C@H](CO)[C@@H](O)[C@@H]1O (mixture of isomers) [STZ, Streptozotocin]		decrease in PDH activity
